Test system: abuse liability (lever pressing for intravenous drug delivery)
Assay: Self-administration model
Format: in vivo, rat
Excerpt: Self-Administration Model.
Addiction/dependence is a critical side effect of opioids and must be evaluated with any new member of this family. The most reliable test of abuse liability with the most translational relevance is a contingent drug self-administration model, in which rats are trained to press a lever for intravenous drug delivery. Sixteen standard self-administration chambers (30×20×20 cm, Med Associates) were housed inside sound-attenuating cubicles fitted with a fan for airflow and to mask noise. Each chamber contained two retractable levers, two stimulus lights, a speaker for tone delivery, and a house light to provide general illumination. In addition, each chamber was equipped with a balanced metal arm and spring leash attached to a swivel (Instech). Tygon® tubing extended through the leash and was connected to a 10 ml syringe mounted on an infusion pump located outside the sound-attenuating cubicle. Rats were anesthetized with i.p. injections of ketamine (66 mg/kg; Vedcolnc, St Joseph, Mo., USA), xylazine (1.3 mg/kg; Lloyd Laboratories, Shenandoah, Iowa, USA), and equithesin (0.5 ml/kg); sodium pentobarbital (4 mg/kg), chloral hydrate (17 mg/kg), and 21.3 mg/kg magnesium sulfate heptahydrate dissolved in 44% propylene glycol, 10% ethanol solution). Ketorolac (2.0 mg/kg, i.p. Sigma, St. Louis, Mo., USA) was given just prior to surgery as an analgesic. One end of a silastic catheter was inserted 33 mm into the external right jugular and secured with 4.0 silk sutures. The other end ran subcutaneously and exited from a small incision just below the scapula. This end is attached to an infusion harness (Instech Solomon, Plymouth Meeting, Pa., USA) that provides access to an external port for IV drug delivery. […]
During self-administration, rats received an IV infusion (0.1 ml) of 10 U/ml heparinized saline before each session. […] Cocaine was chosen for comparison purposes because it is readily self-administered.

With `CCCC[C@@H](NC(=O)[C@@H](Cc1ccccc1)NC(=O)[C@H](N)Cc1ccccc1)C(=O)N[C@H](CCCCN(C)C)C(=O)NCc1ccncc1` [Compound 9] the “lever responding in operant self-administration” value (IV infusion 20 mg/kg/inf, 2-hr sessions, five-day period, n=8) was “failed to maintain lever responding” and the “number of infusions in self-administration” value (JT09 IV, days 2-5 compared to day one) was “decreased on all 4 days”.

Reference: patent publication US20200316159A1, “SUSTAINED RELEASE COMPOSITIONS OF KAPPA-OPIOID RECEPTOR AGONIST” (JT PHARMACEUTICALS, INC., priority 2016, published 2020)
